Laboratory results published in paper PMC3961306, “Comparison of the Cancer Gene Targeting and Biochemical Selectivities of All Targeted Kinase Inhibitors Approved for Clinical Use” (PLoS ONE, 2014).

Experiments:
Assay in all cases: Kinase profiling in a biochemical assay panel (mobility shift assays and ELISA), %-inhibition at 1 μM; selectivity entropy
[1] = target: T1, panel of more than 300 wild-type and mutant kinases (313 kinase panel) (Homo sapiens, UniProt P46734)
T1 sequence (P46734 1-347): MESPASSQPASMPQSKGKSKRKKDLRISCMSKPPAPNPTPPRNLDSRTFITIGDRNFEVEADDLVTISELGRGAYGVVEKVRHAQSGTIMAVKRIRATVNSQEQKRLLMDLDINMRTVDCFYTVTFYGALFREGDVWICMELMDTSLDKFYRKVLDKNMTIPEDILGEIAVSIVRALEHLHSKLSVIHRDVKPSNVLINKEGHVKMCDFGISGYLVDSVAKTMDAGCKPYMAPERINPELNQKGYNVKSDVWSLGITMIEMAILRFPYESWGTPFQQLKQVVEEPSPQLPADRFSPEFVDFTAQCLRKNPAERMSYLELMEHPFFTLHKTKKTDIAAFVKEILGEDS

[2] = target: panel of more than 300 wild-type and mutant kinases (313 kinase panel) (Homo sapiens, UniProt P50613)
panel of more than 300 wild-type and mutant kinases (313 kinase panel) (Homo sapiens, UniProt P50613), sequence (P50613 whole entry, change not shown): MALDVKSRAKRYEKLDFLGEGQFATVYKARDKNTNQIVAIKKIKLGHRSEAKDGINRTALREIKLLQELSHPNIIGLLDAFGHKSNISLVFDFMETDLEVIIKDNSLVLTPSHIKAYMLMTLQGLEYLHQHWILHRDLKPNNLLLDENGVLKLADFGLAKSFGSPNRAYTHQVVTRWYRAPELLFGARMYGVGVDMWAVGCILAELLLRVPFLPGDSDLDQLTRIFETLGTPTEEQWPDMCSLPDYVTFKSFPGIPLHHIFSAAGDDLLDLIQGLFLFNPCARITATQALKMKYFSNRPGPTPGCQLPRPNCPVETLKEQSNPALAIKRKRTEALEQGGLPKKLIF

[3] = target: T2, panel of more than 300 wild-type and mutant kinases (313 kinase panel) (Homo sapiens, UniProt Q8TD19)
T2 sequence (Q8TD19 1-979): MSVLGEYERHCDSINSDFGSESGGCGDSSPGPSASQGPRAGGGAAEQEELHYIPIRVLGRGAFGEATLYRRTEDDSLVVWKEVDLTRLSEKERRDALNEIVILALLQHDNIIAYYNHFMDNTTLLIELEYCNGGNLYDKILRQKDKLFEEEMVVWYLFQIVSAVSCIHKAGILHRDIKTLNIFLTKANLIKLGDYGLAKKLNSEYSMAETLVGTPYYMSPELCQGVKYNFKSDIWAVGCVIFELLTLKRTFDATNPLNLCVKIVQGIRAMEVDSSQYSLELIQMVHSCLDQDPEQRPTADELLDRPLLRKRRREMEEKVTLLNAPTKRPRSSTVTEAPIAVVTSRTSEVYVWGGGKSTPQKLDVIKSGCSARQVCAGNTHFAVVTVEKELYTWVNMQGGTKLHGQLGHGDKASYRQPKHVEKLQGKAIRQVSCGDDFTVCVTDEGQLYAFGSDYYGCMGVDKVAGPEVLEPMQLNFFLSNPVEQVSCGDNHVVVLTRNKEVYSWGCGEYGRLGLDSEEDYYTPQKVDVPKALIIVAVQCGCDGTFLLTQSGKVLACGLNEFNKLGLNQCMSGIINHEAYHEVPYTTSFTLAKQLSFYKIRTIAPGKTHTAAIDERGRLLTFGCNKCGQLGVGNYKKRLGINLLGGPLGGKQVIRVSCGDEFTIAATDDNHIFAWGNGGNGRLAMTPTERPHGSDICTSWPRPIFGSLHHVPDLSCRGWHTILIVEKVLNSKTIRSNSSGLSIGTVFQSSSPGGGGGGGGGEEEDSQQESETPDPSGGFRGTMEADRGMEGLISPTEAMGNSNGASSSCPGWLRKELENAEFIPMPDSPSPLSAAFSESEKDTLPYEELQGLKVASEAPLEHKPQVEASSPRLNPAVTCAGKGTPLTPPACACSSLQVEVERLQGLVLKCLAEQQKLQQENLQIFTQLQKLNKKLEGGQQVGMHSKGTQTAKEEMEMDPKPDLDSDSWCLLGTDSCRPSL

[4] = target: T3, panel of more than 300 wild-type and mutant kinases (313 kinase panel) (Homo sapiens, UniProt P30530)
T3 sequence (P30530 26-894): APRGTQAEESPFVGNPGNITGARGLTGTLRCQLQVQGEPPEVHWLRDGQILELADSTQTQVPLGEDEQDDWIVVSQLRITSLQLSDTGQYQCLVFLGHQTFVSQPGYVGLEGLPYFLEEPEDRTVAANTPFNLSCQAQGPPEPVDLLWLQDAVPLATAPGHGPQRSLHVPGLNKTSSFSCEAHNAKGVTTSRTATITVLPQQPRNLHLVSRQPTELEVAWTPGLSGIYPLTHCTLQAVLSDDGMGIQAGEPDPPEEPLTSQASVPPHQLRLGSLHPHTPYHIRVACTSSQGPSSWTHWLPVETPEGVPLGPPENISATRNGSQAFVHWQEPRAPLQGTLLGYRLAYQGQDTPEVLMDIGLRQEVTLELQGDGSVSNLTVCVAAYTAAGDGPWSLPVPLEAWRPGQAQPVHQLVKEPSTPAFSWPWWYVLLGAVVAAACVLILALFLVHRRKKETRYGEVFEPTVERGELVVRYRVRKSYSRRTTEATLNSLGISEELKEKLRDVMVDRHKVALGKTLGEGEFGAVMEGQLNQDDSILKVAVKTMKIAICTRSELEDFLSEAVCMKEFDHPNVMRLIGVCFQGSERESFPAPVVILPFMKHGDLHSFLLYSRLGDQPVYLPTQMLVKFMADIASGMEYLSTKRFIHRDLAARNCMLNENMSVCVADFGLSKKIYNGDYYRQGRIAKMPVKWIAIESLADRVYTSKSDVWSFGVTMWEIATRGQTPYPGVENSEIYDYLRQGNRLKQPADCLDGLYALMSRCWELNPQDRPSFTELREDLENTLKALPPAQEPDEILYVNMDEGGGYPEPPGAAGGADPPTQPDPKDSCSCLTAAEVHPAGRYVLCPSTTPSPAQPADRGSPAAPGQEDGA

[5] = target: panel of more than 300 wild-type and mutant kinases (313 kinase panel) (Homo sapiens, UniProt Q14680)
[6] = target: panel of more than 300 wild-type and mutant kinases (313 kinase panel) (Homo sapiens, UniProt Q9UPE1)
[7] = kinase CDK7/CycH/MAT1, 1 μM compound
[8] = kinase MAP2K3, compound at 1 μM

SMILES | %-inhibition of MAP2K3 ([1]; 1 µM) | %-inhibition, CDK7/CycH/MAT1 [2, 7] | %-inhibition of NEK9 ([3]; 1 µM) | %-inhibition, AXL ([4]; kinase AXL, 1 μM compound) | %-inhibition of MAP2K3 [1, 8] | %-inhibition of MELK ([5]; kinase MELK, compound at 1 μM) | %-inhibition of NEK9 ([3]; kinase NEK9, 1 μM) | %-inhibition of MSSK1 ([6]; kinase MSSK1, 1 μM) | %-inhibition, AXL ([4]; 1 µM) | %-inhibition, CDK7/CycH/MAT1 ([2]; 1 µM) | %-inhibition of MELK ([5]; 1 µM) | %-inhibition of MSSK1 ([6]; 1 µM)
COc1cc(Nc2c(C#N)cnc3cc(OCCCN4CCN(C)CC4)c(OC)cc23)c(Cl)cc1Cl [bosutinib] | 34% | -4.35% | -4.25% |  |  |  |  |  |  |  |  | 
COc1cc2nccc(Oc3ccc(NC(=O)C4(C(=O)Nc5ccc(F)cc5)CC4)cc3)c2cc1OC [cabozantinib] |  | -10% |  | 100% | 72% | 54% | 1.26% | 32% |  |  |  | 
C[C@@H](Oc1cc(-c2cnn(C3CCNCC3)c2)cnc1N)c1c(Cl)ccc(F)c1Cl [crizotinib] |  | 58% |  |  | 12% | 5.47% | 57% |  |  |  |  | 
CC(C)(C)c1nc(-c2cccc(NS(=O)(=O)c3c(F)cccc3F)c2F)c(-c2ccnc(N)n2)s1 [dabrafenib] |  |  |  | 30% | 11% | 82% | 101% | 2.55% |  |  |  | 
Cc1nc(Nc2ncc(C(=O)Nc3c(C)cccc3Cl)s2)cc(N2CCN(CCO)CC2)n1 [dasatinib] |  |  |  |  | 35% |  |  | -4.63% |  |  |  | 
C#Cc1cccc(Nc2ncnc3cc(OCCOC)c(OCCOC)cc23)c1 [erlotinib] | 10% |  | 7% |  |  |  |  |  | 18% | 1.22% | 2.69% | -5%
CO[C@H]1C[C@@H]2CC[C@@H](C)[C@@](O)(O2)C(=O)C(=O)N2CCCC[C@H]2C(=O)O[C@H]([C@H](C)C[C@@H]2CC[C@@H](OCCO)[C@H](OC)C2)CC(=O)[C@H](C)/C=C(\C)[C@@H](O)[C@@H](OC)C(=O)[C@H](C)C[C@H](C)/C=C/C=C/C=C/1C [everolimus] |  | -6% |  | -1.68% | 10% | -3.33% | -11% | -7% |  |  |  | 
O=S(=O)(c1cccc2cnccc12)N1CCCNCC1 [fasudil] |  | 7.49% |  | 2.62% | -4% | 25% | -3% | -5.56% |  |  |  | 
CS(=O)(=O)CCNCc1ccc(-c2ccc3ncnc(Nc4ccc(OCc5cccc(F)c5)c(Cl)c4)c3c2)o1 [lapatinib] |  | 2% |  |  | 13% | -3.71% |  | -3% | 19% |  |  | 
Cc1cn(-c2cc(NC(=O)c3ccc(C)c(Nc4nccc(-c5cccnc5)n4)c3)cc(C(F)(F)F)c2)cn1 [nilotinib] |  | -2.34% |  | -4.75% | 94% |  | -21% | -17% |  |  | 23% | 
Cc1ccc(Nc2nccc(N(C)c3ccc4c(C)n(C)nc4c3)n2)cc1S(N)(=O)=O [pazopanib] |  | 9% |  | 24% | 47% | -0.665% | 3.59% | -2% |  |  |  | 
Cc1ccc(C(=O)Nc2ccc(CN3CCN(C)CC3)c(C(F)(F)F)c2)cc1C#Cc1cnc2cccnn12 [ponatinib] |  | 9% |  | 70% |  |  | 17% | 17% |  |  |  | 
CNC(=O)c1cc(Oc2ccc(NC(=O)Nc3ccc(Cl)c(C(F)(F)F)c3)c(F)c2)ccn1 [regorafenib] |  | -3% |  | 29% | 90% | -4.52% | 2.52% | 43% |  |  |  | 
N#CC[C@H](C1CCCC1)n1cc(-c2ncnc3[nH]ccc23)cn1 [ruxolitinib] |  |  |  | 12% | 27% | 34% | 8% | 6% |  | 3.25% |  | 
CCN(CC)CCNC(=O)c1c(C)[nH]c(/C=C2\C(=O)Nc3ccc(F)cc32)c1C [sunitinib] |  |  |  | 98% |  | 95% |  |  |  |  |  | 
CO[C@H]1C[C@@H]2CC[C@@H](C)[C@@](O)(O2)C(=O)C(=O)N2CCCC[C@H]2C(=O)O[C@H]([C@H](C)C[C@@H]2CC[C@@H](OC(=O)C(C)(CO)CO)[C@H](OC)C2)CC(=O)[C@H](C)/C=C(\C)[C@@H](O)[C@@H](OC)C(=O)[C@H](C)C[C@H](C)/C=C/C=C/C=C/1C [temsirolimus] |  | -8% |  | -1.78% | 10% | -1.66% | -8% | -8% |  |  |  | 
CC(=O)Nc1cccc(-n2c(=O)n(C3CC3)c(=O)c3c(Nc4ccc(I)cc4F)n(C)c(=O)c(C)c32)c1 [trametinib] |  | -6% |  | -1.12% | 3% | -0.588% | -3% | -5% |  |  |  | 
COc1cc2c(Nc3ccc(Br)cc3F)ncnc2cc1OCC1CCN(C)CC1 [vandetanib] |  | -4.26% |  |  | 16% | 1.19% | -7% | -4.37% |  |  |  | 
CCCS(=O)(=O)Nc1ccc(F)c(C(=O)c2c[nH]c3ncc(-c4ccc(Cl)cc4)cc23)c1F [vemurafenib] |  | 0.137% |  | 20% | 34% | 4% | -2.2% | -6.65% |  |  |  | 
